# Reference: patent US20240287025A1, “TETRAHYDROQUINOLINE (THQ) COUMPOUNDS” (Centre National de la Recherche Scientifique, priority 2021, published 2024)
# Tests used:
# [1] = molecular target: Brd4 BD1 (Homo sapiens (Human), UniProt O60885); experiment: HTRF evaluation of bromodomain inhibitors, Brd4 BD1; format: binding; settings: H4ac4 peptide 50 nM, 4 h at 4° C.
# Description: (§1) HTRF reagents and buffers were purchased from Cisbio Bioassays. The assay used a terbium (Ill) cryptate donor reagent conjugated to an anti-GST antibody (MAb anti-GST-Tb; GSTTLA), a streptavidin-conjugated acceptor reagent (streptavidin-d2) and Cisbio proprietary buffers (EPlgeneous Binding Domain Diluent and Detection buffer, respectively). GST-tagged bromodomains (BDs) were expressed in E. coli and purified using standard procedures. Incubation of GST-tagged BDs with biotinylated acetylated H4 peptide (H4K5acK8acK12acK16ac, here named H4ac4) brings the donor and acceptor into close proximity and allows for a FRET reaction. GST-tagged proteins in 25 mM Hepes pH 7.5, 150 mM NaCl, 0.5 mM DTT were assayed at a final concentration of 5 nM. Biotinylated H4ac4 peptides were used at a final concentration of 50, 600 nM in assays involving Brd4 BD1, Brd4 BD2, respectively. The antibody-conjugated donor was used at 0.5 nM and the streptavidin-conjugated acceptor was used at ⅛ of the H4ac4 peptide concentration. Inhibitors were tested by performing an eleven-point dilution series with a maximal final concentration of […]. These concentrations allowed a fixed DMSO concentration at 0.2%, critical for a Z′ factor ≥0.8. Components were incubated at 4° C. for 4 h (BD1) or for 24 h (BD2). Experiments were performed in 384-well white plates (Greiner ref. 781080) and analyzed in a ClarioStar plate reader (BMG LABTECH, excitation at 330 nm and emission at 620 and 665 nm, corresponding to the donor and acceptor emission peaks, respectively; the 665/620 ratio is used to calculate the specific HTRF signal) with an integration delay of 60 μs and an integration time of 400 μs.
# [2] = molecular target: Brd4 BD2 (Homo sapiens (Human), UniProt O60885); experiment: HTRF evaluation of bromodomain inhibitors, Brd4 BD2; format: binding; settings: for IC50: HTRF, H4ac4 peptide 600 nM, 24 h at 4° C.; for Selectivity BD2/BD1: ratio of the BD1 and BD2 IC50
# Description: as §1
Compound,IC50 [1] [nM],IC50 [2] [nM],Selectivity BD2/BD1 [2]
"CC[C@H]1[C@@H](C)C(n2cc(COCCOCc3cn(C4c5cc(C(=O)OC)ccc5N(C(C)=O)[C@@H](CC)[C@H]4C)nn3)nn2)c2cc(C(=O)OC)ccc2N1C(C)=O (stereo partly drawn) [XU, Dimethyl-4,4′-(((ethane-1,2-diylbis(oxy))bis(methylene))bis(1H-1,2,3-triazole-4,1-diyl))(2S,2'S,3R,3′R,4S,4'S)-bis(1-acetyl-2-ethyl-3-methyl-1,2,3,4-tetrahydroquinoline-6-carboxylate)]",247,57,4.3
"CC[C@H]1[C@@H](C)[C@H](n2cc(COCCOCCOCc3cn(C4c5cc(C(=O)OC)ccc5N(C(C)=O)[C@@H](CC)[C@H]4C)nn3)nn2)c2cc(C(=O)OC)ccc2N1C(C)=O (stereo partly drawn) [XV, Dimethyl-4,4′-((((oxybis(ethane-2,1-diyl))bis(oxy))bis(methylene))bis(1H-1,2,3-triazole-4,1-diyl))(2S,2'S,3R,3′R,4S,4'S)-bis(1-acetyl-2-ethyl-3-methyl-1,2,3,4-tetrahydroquinoline-6-carboxylate)]",1670,2430,0.7
"CC[C@H]1[C@@H](C)[C@H](n2cc(COCCOCCOCCOCc3cn(C4c5cc(C(=O)OC)ccc5N(C(C)=O)[C@@H](CC)[C@H]4C)nn3)nn2)c2cc(C(=O)OC)ccc2N1C(C)=O (stereo partly drawn) [XW, Dimethyl-4,4′-((2,5,8,11-tetraoxadodecane-1,12-diyl)bis(1H-1,2,3-triazole-4,1-diyl))(2S,2′S,3R,3′R,4S,4′S)-bis(1-acetyl-2-ethyl-3-methyl-1,2,3,4-tetrahydroquinoline-6-carboxylate)]",1850,95.4,19.4
"CC[C@H]1[C@@H](C)[C@H](n2cc(COCCOCCOCCOCCOCc3cn(C4c5cc(C(=O)OC)ccc5N(C(C)=O)[C@@H](CC)[C@H]4C)nn3)nn2)c2cc(C(=O)OC)ccc2N1C(C)=O (stereo partly drawn) [XX, Dimethyl-4,4′-((2,5,8,11,14-pentaoxapentadecane-1,15-diyl)bis(1H-1,2,3-triazole-4,1-diyl))(2S,2'S,3R,3′R,4S,4'S)-bis(1-acetyl-2-ethyl-3-methyl-1,2,3,4-tetrahydroquinoline-6-carboxylate)]",1470,129,11.5
"CC[C@H]1[C@@H](C)C(n2cc(COCCOCCOCCOCCOCCOCc3cn(C4c5cc(C(=O)OC)ccc5N(C(C)=O)[C@@H](CC)[C@H]4C)nn3)nn2)c2cc(C(=O)OC)ccc2N1C(C)=O (stereo partly drawn) [XY, Dimethyl-4,4′-((2,5,8,11,14,17-hexaoxaoctadecane-1,18-diyl)bis(1H-1,2,3-triazole-4,1-diyl))(2S,2'S,3R,3′R,4S,4'S)-bis(1-acetyl-2-ethyl-3-methyl-1,2,3,4-tetrahydroquinoline-6-carboxylate)]",1560,95,16.4
"CC[C@H]1[C@@H](C)[C@H](N=[N+]=[N-])c2cc(C(F)(F)F)ccc2N1C(C)=O [YB, 1-((2S,3R,4S)-4-azido-2-ethyl-3-methyl-6-(trifluoromethyl)-3,4-dihydroquinolin-1(2H)-yl)ethan-1-one]",67000,7570,8.8
"CCCCCc1cn([C@@H]2c3cc(C(F)(F)F)ccc3N(C(C)=O)[C@@H](CC)[C@H]2C)nn1 [YD, 1-((2S,3R,4S)-2-ethyl-3-methyl-4-(4-pentyl-1H-1,2,3-triazol-1-yl)-6-(trifluoromethyl)-3,4-dihydroquinolin-1(2H)-yl)ethan-1-one]",41800,5710,7.3
"CC[C@H]1[C@@H](C)[C@H](n2cc(COCCOCC#Cc3cccc4c3CN(C3CCC(=O)NC3=O)C4=O)nn2)c2cc(C(=O)OC)ccc2N1C(C)=O (stereo partly drawn) [YE, Methyl-(2S,3R,4S)-1-acetyl-4-(4-((2-((3-(2-(2,6-dioxopiperidin-3-yl)-1-oxoisoindolin-4-yl)prop-2-yn-1-yl)oxy)ethoxy)methyl)-1H-1,2,3-triazol-1-yl)-2-ethyl-3-methyl-1,2,3,4-tetrahydroquinoline-6-carboxylate]",7870,486,16.2
"CC[C@H]1[C@@H](C)[C@H](n2cc(COCCOCCOCCOCC#Cc3cccc4c3CN(C3CCC(=O)NC3=O)C4=O)nn2)c2cc(C(=O)OC)ccc2N1C(C)=O (stereo partly drawn) [YF, Methyl-(2S,3R,4S)-1-acetyl-4-(4-(14-(2-(2,6-dioxopiperidin-3-yl)-1-oxoisoindolin-4-yl)-2,5,8,11-tetraoxatetradec-13-yn-1-yl)-1H-1,2,3-triazol-1-yl)-2-ethyl-3-methyl-1,2,3,4-tetrahydroquinoline-6-carboxylate]",17000,1330,12.7
"CC[C@H]1[C@@H](C)[C@H](n2cc(COCCOCCOCCOCCOCCOCC#Cc3cccc4c3CN(C3CCC(=O)NC3=O)C4=O)nn2)c2cc(C(=O)OC)ccc2N1C(C)=O (stereo partly drawn) [YG, Methyl-(2S,3R,4S)-1-acetyl-4-(4-(20-(2-(2,6-dioxopiperidin-3-yl)-1-oxoisoindolin-4-yl)-2,5,8,11,14,17-hexaoxaicos-19-yn-1-yl)-1H-1,2,3-triazol-1-yl)-2-ethyl-3-methyl-1,2,3,4-tetrahydroquinoline-6-carboxylate]",> 20000,1360,
"CC[C@H]1[C@@H](C)[C@H](n2nnc3c2CCC2C(CO)C2CC3)c2cc(C(=O)OC)ccc2N1C(C)=O (stereo partly drawn) [YI, Methyl-(2S,3R,4S)-1-acetyl-2-ethyl-4-(6-(hydroxymethyl)-5,5a,6,6a,7,8-hexahydrocyclopropa[5,6]cycloocta[1,2-d][1,2,3]triazol-1(4H)-yl)-3-methyl-1,2,3,4-tetrahydroquinoline-6-carboxylate]",33600,798,42.1
C=CCCCC(=O)Nc1ccc(-c2ccc3c(c2)[C@H](N=[N+]=[N-])[C@@H](C)[C@@H](CC)N3C(C)=O)cc1 [ent-XC],22400,4430,5.1
C=CCCCC(=O)Nc1ccc(-c2ccc3c(c2)[C@H](n2cc(-c4ccccc4)nn2)[C@@H](C)[C@@H](CC)N3C(C)=O)cc1 [ent-XD],2300,677,3.4
C=CCCCC(=O)Nc1ccc(-c2ccc3c(c2)[C@H](n2cc(CCCCC)nn2)[C@@H](C)[C@@H](CC)N3C(C)=O)cc1 [ent-XE],> 100000,> 100000,
CCCCCc1cn([C@H]2c3cc(C(=O)OC)ccc3N(C(C)=O)[C@H](CC)[C@@H]2C)nn1 [ent-XF],6300,8330,0.8
C=CCCCC(=O)Nc1ccc(-c2ccc3c(c2)[C@H](NC(=O)OC(C)C)[C@@H](C)[C@@H](CC)N3C(C)=O)cc1 [ent-XI],5740,2940,2.0
CC[C@@H]1[C@H](C)[C@@H](NC(=O)OC(C)C)c2cc(C(=O)OC)ccc2N1C(C)=O [ent-XJ],> 100000,17700,
C=CCCCC(=O)Nc1ccc(-c2ccc3c(c2)[C@H](Nc2ncc(Cl)cn2)[C@@H](C)[C@@H](CC)N3C(C)=O)cc1 [ent-XK],6090,2020,3.0
CC[C@@H]1[C@H](C)[C@@H](Nc2ncc(Cl)cn2)c2cc(C(=O)OC)ccc2N1C(C)=O [ent-XL],> 100000,7440,
